Test results published in US20190256819A1, “PROCESS FOR IMPROVING THE DISSOLUTION BEHAVIOUR OF COMPONENTS IN AQUEOUS SOLUTIONS” (Merck Patent GmbH, priority 2016, published 2019).

Assay: Measurement of dissolution enthalpy by solution calorimetry (TAM IV Microcalorimeter), relative temperature as a function of time
Assay type: physicochemical
Settings: 250 mg sample in 100 mL water, 25° C., stirring at 500 rpm, ampoule broken; FIGS. 1-4
Experimental: The TAM IV Microcalorimeter was used to detect temperature changes of solutions with an accuracy of 0.001 K, which evolves from the dissolution enthalpy of the substances being tested.
Different formulations of amino acids are placed in an ampoule, surrounded by aqueous solvent. After the ampoule has been ruptured, the temperature change is analyzed.
Experimental Setup: • 250 mg of each sample were filled into a 1 mL crushing ampoule at ambient conditions without any pre-treatment. • The ampoules were closed with a silicone stopper and wax and inserted into the stirrer of the solution calorimeter and immersed into 100 mL water. • The system was then equilibrated at 25° C. while stirring at 500 rpm before the ampoule was broken. • Calibrations with a heat pulse of 2.5 J at a power of 250 mW were performed before and after the break. • For data evaluation, the slope of the baseline before breaking the sample was set to zero by differentiation of the curve, shift to zero and re-integration.
For spray dried multicomponent amino acids the enthalpy of solution measurement have been carried out on a special ampule calorimeter equipped with an isothermal shell. In the course of the calorimetry measurement, the stability of the temperature-control system was maintained constant to within 10^−4K. All experiments were performed three times and were reproducible within 5%.

SMILES | Relative temperature as a function of time on dissolution (enthalpy of solution)
CC(C)C[C@H](N)C(=O)O [L-leucine] | steady decrease in the temperature
O=C(O)[C@@H]1CCCN1 [L-proline] | strong increase in the temperature is observed followed by a continous decrease
